Source: US20250049930A1, “PROTAC MOLECULES TARGETING FOXP3 AND USES THEREOF” (CEDARS-SINAI MEDICAL CENTER, priority 2022, published 2025)
Residues, ends and D or L forms follow the SMILES beside them. *: point of attachment. X1 = O=C1CCC(N2C(=O)c3cccc(*)c3C2=O)C(=O)N1; PEG4 = NCCOCCOCCOCCOCCC(=O)O

How the values were obtained:
cereblon = cereblon (Homo sapiens, UniProt Q96SW2); experiment: SPR assay, binary complex; assay type: binding; conditions: 25° C., binary complex of cereblon and P-FoxP3
Chain of cereblon (Q96SW2 whole entry): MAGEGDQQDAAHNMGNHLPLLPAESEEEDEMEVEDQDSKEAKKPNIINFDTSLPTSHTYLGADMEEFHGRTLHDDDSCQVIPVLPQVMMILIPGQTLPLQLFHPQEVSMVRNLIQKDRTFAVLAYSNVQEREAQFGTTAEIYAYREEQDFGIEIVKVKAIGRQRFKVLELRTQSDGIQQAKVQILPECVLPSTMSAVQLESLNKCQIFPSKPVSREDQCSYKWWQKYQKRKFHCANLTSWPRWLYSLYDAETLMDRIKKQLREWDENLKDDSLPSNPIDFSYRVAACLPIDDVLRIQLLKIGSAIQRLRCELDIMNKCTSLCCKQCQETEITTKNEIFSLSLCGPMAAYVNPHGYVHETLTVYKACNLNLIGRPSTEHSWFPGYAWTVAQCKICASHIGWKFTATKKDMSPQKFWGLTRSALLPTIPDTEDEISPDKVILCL
Protocol: (§1) The SPR assay for ternary complex cooperativity was performed by BOC Sciences who provided the following details: Various concentrations of cereblon were dissolved in water and manually printed onto the 47 nm gold-coated PlexArray Nanocapture Sensor Chip (Plexera Bioscience, Seattle, WA) at 40% humidity. Each concentration was printed in replicate, and each spot contained […] of sample solution. The chip was incubated overnight in 80% humidity at 4° C., and rinsed with 10×PBST for 10 minutes, 1×PBST for 10 minutes, and deionized water twice for 10 minutes. The chip was then blocked with 5% non-fat milk in water overnight, washed as before, and then dried under a stream of nitrogen.
(§2) SPR imaging measurements were performed with PlexAray HT (Plexera Bioscience, Seattle, WA, US). Buffers and samples were injected by a non-pulsatile piston pump into the 30 μL flow cell. […] The signal changes after binding and washing (in AU) are recorded as the assay value. Selected protein-grafted regions in the SPR images were analyzed, and the average reflectivity variations of the chosen areas were plotted as a function of time. Real-time binding signals were recorded and analyzed by Data Analysis Module (DAM, Plexera Bioscience, Seattle, WA, US). […]

RENCA tumors = experiment: Subcutaneous RENCA tumor growth in mice; assay type: in vivo; conditions: s.c. RENCA in Balb/C mice, i.p. treatment from day 10, vs saline
Protocol: Mice: Balb/C mice, 5-8 weeks old, were purchased from Jackson laboratory (Ellsworth, Maine) and housed under pathogen free conditions. All experiments involving animals followed federal and state standards, which include the federal Animal Welfare Act and the NIH guide for the care and use of laboratory animals. The RENCA tumors were generated by subcutaneously injecting 2×10^5 tumor cells into the frank. The day tumor cells were injected was considered day 0. PF (0.1 mmol), PC (0.1 mmol) or P60 (100 ug) was administered i.p. twice a week starting on day 10; αPD1 (200 μg) was administered i.p. twice a week starting on day 5; temsirolimus (15 μg) was administered i.p. every other day, starting on day 10. All drugs were administered throughout the experimental course unless indicated. CD8 cells were depleted with a one-time αCD8 (200 μg) i.p. administration on day 2.
In cancer, Tregs can suppress the antitumor immune response, which is primarily mediated by CD8+ lymphocytes. Therefore, PF was administered to mice to enhance antitumor immunity and suppress growth of syngeneic mouse kidney cancer, which is considered an immunoresponsive cancer type. Mice tumors were established by injecting RENCA cells subcutaneously in the flank of Balb/C mice (5-7 mice per group). RENCA cells were injected subcutaneously to establish palpable tumors, and 10 days later mice were treated i.p., twice a week throughout the experiment, with PF, PC, P60 or Saline (FIG. 3D). Pomalidomide conjugated to (PEG)4 (PROTAC-control; PC) and P60 served as controls. […] In summary, PF decreased the immunosuppressive function of Tregs in vitro and decreased tumor growth in mice. […]
All immunotherapies, particularly when multi-drug combinations are involved, may have off-target effects. For example, drugs may have direct effects on the tumor, inhibiting tumor proliferation or inducing tumor apoptosis. Mice tumors were established by injecting RENCA cell subcutaneously in the flank of Balb/C mice (6-8 mice per group). 10 days later, mice were treated with PF twice per week. CD8 lymphocytes were depleted with αCD8 administered i.p. 2 days after injection of tumor cells. Mice in indicated groups received i.p. αPD1, twice a week, starting day 5 (FIG. 5A). Mice in indicated groups received i.p. temsirolimus every other day for 14 days, starting on days 10 (FIG. 5B). Tumor growth was monitored in these groups. […]

[1] = target: ternary complex consisting of cereblon, FoxP3, and P-FoxP3 (Homo sapiens, UniProt Q96SW2+Q9BZS1); experiment: SPR assay, ternary complex cooperativity; assay type: binding
Chain of ternary complex consisting of cereblon, FoxP3, and P-FoxP3 (Q96SW2 whole entry): as above
Chain of ternary complex consisting of cereblon, FoxP3, and P-FoxP3 (Q9BZS1 whole entry): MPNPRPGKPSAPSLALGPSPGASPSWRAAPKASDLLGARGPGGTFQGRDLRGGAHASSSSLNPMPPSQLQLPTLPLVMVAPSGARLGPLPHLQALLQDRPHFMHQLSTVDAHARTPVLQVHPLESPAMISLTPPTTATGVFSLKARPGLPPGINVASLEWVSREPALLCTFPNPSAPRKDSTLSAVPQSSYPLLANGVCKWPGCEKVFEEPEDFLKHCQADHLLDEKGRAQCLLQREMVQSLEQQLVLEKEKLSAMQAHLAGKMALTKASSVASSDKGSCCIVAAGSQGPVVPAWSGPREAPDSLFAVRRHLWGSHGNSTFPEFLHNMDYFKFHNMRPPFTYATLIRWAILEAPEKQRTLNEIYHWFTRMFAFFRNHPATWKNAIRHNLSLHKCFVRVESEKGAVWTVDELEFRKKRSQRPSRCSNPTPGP
Protocol: as §1, §2

- Kd (cereblon): 987 nM
- Kd ([1]; SPR, cereblon printed on chip, 25° C., complex of cereblon, P-FoxP3 and recombinant FoxP3, read-out: Equilibrium dissociation constant, KD ternary): 434 nM
- Cooperativity, a=KD binary/KD ternary ([1]; a>1 positively cooperative, a=1 non-cooperative, a<1 negatively cooperative): 2.27
SMILES: CSCC[C@H](NC(=O)[C@H](C)NC(=O)[C@H](Cc1ccccc1)NC(=O)[C@H](Cc1ccccc1)NC(=O)[C@@H]1CCCN1C(=O)[C@H](Cc1c[nH]c2ccccc12)NC(=O)[C@H](CCSC)NC(=O)[C@H](CCCCN)NC(=O)[C@H](CCCNC(=N)N)NC(=O)[C@H](Cc1ccccc1)NC(=O)[C@H](CO)NC(=O)[C@H](CCC(N)=O)NC(=O)[C@H](Cc1ccccc1)NC(=O)[C@H](CC(=O)O)NC(=O)[C@H](CCCNC(=N)N)NC(=O)CCOCCOCCOCCOCCNc1cccc2c1C(=O)N(C1CCC(=O)NC1=O)C2=O)C(=O)O (some centres unmarked) [PF, Pomalidomide-PEG4-RDFQSFRKMWPFFAM] ({X1-PEG4}-RDFQSFRKMWPFFAM-OH)
- tumor growth, single agent (RENCA tumors): produced a decrease in tumor growth
- tumor growth, single agent (RENCA tumors; listed as P-FoxP3): appeared to decrease tumor growth compared to saline control
